Source: US11498899B2, “Nitrone herbicides” (FMC Corporation, priority 2016, dated 2022)

Legend:
[1] = system: barnyardgrass (Echinochloa crus-galli); assay: Test A preemergence, visual injury rating 0-100 (0 no effect, 100 complete control); format: in vivo; conditions: for Barnyardgrass plant response rating (0 to 100 scale): 125 g ai/ha; for Barnyardgrass plant response rating: 500 g ai/ha, 0 to 100 scale
[2] = system: foxtail, green (green foxtail, Setaria viridis); assay: Test A preemergence, visual injury rating 0-100; format: in vivo; conditions: for Foxtail, Green plant response rating: 0 to 100 scale
kochia (Kochia scoparia) [3] = assay: Test A preemergence, visual injury rating 0-100; format: in vivo; conditions: for Kochia plant response rating: 0 to 100 scale
[4] = system: pigweed (Amaranthus retroflexus); assay: Test A preemergence, visual injury rating 0-100; format: in vivo; conditions: for Pigweed plant response rating: 0 to 100 scale
[5] = system: ragweed (common ragweed, Ambrosia elatior); assay: Test A preemergence, visual injury rating 0-100; format: in vivo; conditions: for Ragweed plant response rating: 0 to 100 scale
[6] = system: ryegrass, Italian (Italian ryegrass, Lolium multiflorum); assay: Test A preemergence, visual injury rating 0-100; format: in vivo; conditions: for Ryegrass, Italian plant response rating: 0 to 100 scale
[7] = system: barnyardgrass (Echinochloa crus-galli); assay: Test A postemergence, visual injury rating 0-100; format: in vivo; conditions: 0 to 100 scale
[8] = system: blackgrass (Alopecurus myosuroides); assay: Test A postemergence, visual injury rating 0-100; format: in vivo; conditions: 0 to 100 scale
corn (Zea mays) = assay: Test A postemergence, visual injury rating 0-100; format: in vivo; conditions: 0 to 100 scale
[9] = system: foxtail, green (green foxtail, Setaria viridis); assay: Test A postemergence, visual injury rating 0-100; format: in vivo; conditions: 0 to 100 scale
kochia (Kochia scoparia) [10] = assay: Test A postemergence, visual injury rating 0-100; format: in vivo; conditions: 0 to 100 scale
[11] = system: pigweed (Amaranthus retroflexus); assay: Test A postemergence, visual injury rating 0-100; format: in vivo; conditions: 0 to 100 scale
[12] = system: ragweed (common ragweed, Ambrosia elatior); assay: Test A postemergence, visual injury rating 0-100; format: in vivo; conditions: 0 to 100 scale
[13] = system: ryegrass, Italian (Italian ryegrass, Lolium multiflorum); assay: Test A postemergence, visual injury rating 0-100; format: in vivo; conditions: 0 to 100 scale
[14] = system: wheat (Triticum aestivum); assay: Test A postemergence, visual injury rating 0-100; format: in vivo; conditions: 0 to 100 scale
[15] = system: ducksalad (Heteranthera limosa); assay: Test B flooded paddy test, visual rating 0-100; conditions: Flood, 250 g ai/ha, applied to paddy water, rated after 13 to 15 days
[16] = system: barnyardgrass (Echinochloa crus-galli); assay: Test B flooded paddy test, visual rating 0-100; conditions: Flood, 250 g ai/ha, applied to paddy water, rated after 13 to 15 days
rice (Oryza sativa) = assay: Test B flooded paddy test, visual rating 0-100 (0 no effect, 100 complete control); conditions: Flood, 250 g ai/ha, applied to paddy water, rated after 13 to 15 days

| Structure (SMILES) | Barnyardgrass plant response rating (0 to 100 scale) [1] | Barnyardgrass plant response rating [1] | Foxtail, Green plant response rating (0 to 100 scale) ([2]; 125 g ai/ha) | Kochia plant response rating (0 to 100 scale) (kochia (Kochia scoparia) [3]; 125 g ai/ha) | Pigweed plant response rating (0 to 100 scale) ([4]; 125 g ai/ha) | Ragweed plant response rating (0 to 100 scale) ([5]; 125 g ai/ha) | Ryegrass, Italian plant response rating (0 to 100 scale) ([6]; 125 g ai/ha) | Barnyardgrass plant response rating ([7]; 125 g ai/ha) | Barnyardgrass plant response rating ([7]; 500 g ai/ha) | Blackgrass plant response rating ([8]; 125 g ai/ha) | Blackgrass plant response rating ([8]; 500 g ai/ha) | Corn plant response rating (corn (Zea mays); 125 g ai/ha) | Corn plant response rating (corn (Zea mays); 500 g ai/ha) | Foxtail, Green plant response rating ([9]; 125 g ai/ha) | Foxtail, Green plant response rating ([9]; 500 g ai/ha) | Kochia plant response rating (kochia (Kochia scoparia) [10]; 125 g ai/ha) | Kochia plant response rating (kochia (Kochia scoparia) [10]; 500 g ai/ha) | Pigweed plant response rating ([11]; 125 g ai/ha) | Pigweed plant response rating ([11]; 500 g ai/ha) | Ragweed plant response rating ([12]; 125 g ai/ha) | further results |
| --- | --- | --- | --- | --- | --- | --- | --- | --- | --- | --- | --- | --- | --- | --- | --- | --- | --- | --- | --- | --- | --- |
| CC1=[N+]([O-])C(C(=O)Nc2cccc(F)c2F)C(c2ccc(C#N)cc2)C1 (racemic) [Compound 22] | 20 | 80 | 40 | 0 | 0 | 70 | 0 | 0 | 60 | 0 | 30 | 0 | 0 | 0 | 50 | 0 | 30 | 0 | 20 | 0 | Foxtail, Green plant response rating ([2]; 500 g ai/ha): 70; Kochia plant response rating (kochia (Kochia scoparia) [3]; 500 g ai/ha): 20; Pigweed plant response rating ([4]; 500 g ai/ha): 20; Ragweed plant response rating ([5]; 500 g ai/ha): 30; Ryegrass, Italian plant response rating ([6]; 500 g ai/ha): 0; Ragweed plant response rating ([12]; 500 g ai/ha): 0; Ryegrass, Italian plant response rating ([13]; 125 g ai/ha): 0; Ryegrass, Italian plant response rating ([13]; 500 g ai/ha): 0; Wheat plant response rating ([14]; 125 g ai/ha): 0; Wheat plant response rating ([14]; 500 g ai/ha): 0; Ducksalad plant response rating (0 to 100 scale) [15]: 40; Barnyardgrass plant response rating (0 to 100 scale) [16]: 0; Rice plant response rating (0 to 100 scale) (rice (Oryza sativa)): 30 |
| CC1=[N+]([O-])C(C(=O)Nc2cccc(F)c2F)C(c2cccc(C#N)c2)C1 (racemic) [Compound 23] | 60 | 90 | 80 | 20 | 0 | 50 | 0 | 70 | 80 | 0 | 0 | 0 | 0 | 30 | 80 | 0 | 20 | 0 | 0 | 0 | Foxtail, Green plant response rating ([2]; 500 g ai/ha): 90; Kochia plant response rating (kochia (Kochia scoparia) [3]; 500 g ai/ha): 50; Pigweed plant response rating ([4]; 500 g ai/ha): 0; Ragweed plant response rating ([5]; 500 g ai/ha): 80; Ryegrass, Italian plant response rating ([6]; 500 g ai/ha): 0; Ragweed plant response rating ([12]; 500 g ai/ha): 0; Ryegrass, Italian plant response rating ([13]; 125 g ai/ha): 0; Ryegrass, Italian plant response rating ([13]; 500 g ai/ha): 20; Wheat plant response rating ([14]; 125 g ai/ha): 20; Wheat plant response rating ([14]; 500 g ai/ha): 50; Ducksalad plant response rating (0 to 100 scale) [15]: 60; Barnyardgrass plant response rating (0 to 100 scale) [16]: 50; Rice plant response rating (0 to 100 scale) (rice (Oryza sativa)): 0 |
| CC1=[N+]([O-])C(C(=O)Nc2cccc(F)c2F)C(c2ccc(C)c(C)c2)C1 (racemic) [Compound 24] | 90 | 90 | 90 | 40 | 20 | 60 | 40 | 90 | 90 | 20 | 60 | 50 | 90 | 80 | 90 | 50 | 70 | 30 | 60 | 20 | Foxtail, Green plant response rating ([2]; 500 g ai/ha): 90; Kochia plant response rating (kochia (Kochia scoparia) [3]; 500 g ai/ha): 90; Pigweed plant response rating ([4]; 500 g ai/ha): 50; Ragweed plant response rating ([5]; 500 g ai/ha): 80; Ryegrass, Italian plant response rating ([6]; 500 g ai/ha): 70; Ragweed plant response rating ([12]; 500 g ai/ha): 50; Ryegrass, Italian plant response rating ([13]; 125 g ai/ha): 90; Ryegrass, Italian plant response rating ([13]; 500 g ai/ha): 80; Wheat plant response rating ([14]; 125 g ai/ha): 50; Wheat plant response rating ([14]; 500 g ai/ha): 90; Ducksalad plant response rating (0 to 100 scale) [15]: 85; Barnyardgrass plant response rating (0 to 100 scale) [16]: 70; Rice plant response rating (0 to 100 scale) (rice (Oryza sativa)): 0 |
| CC1=[N+]([O-])C(C(=O)Nc2cccc(F)c2Cl)C(c2ccc(C(F)(F)F)cc2)C1 (racemic) [Compound 31] | 50 | 100 | 90 | 0 | 0 | 0 | 0 | 30 | 90 | 20 | 80 | 0 | 10 | 40 | 90 | 0 | 10 | 0 | 30 | 0 | Foxtail, Green plant response rating (0 to 100 scale) ([2]; 500 g ai/ha): 100; Kochia plant response rating (0 to 100 scale) (kochia (Kochia scoparia) [3]; 500 g ai/ha): 80; Pigweed plant response rating (0 to 100 scale) ([4]; 500 g ai/ha): 60; Ragweed plant response rating (0 to 100 scale) ([5]; 500 g ai/ha): 90; Ryegrass, Italian plant response rating (0 to 100 scale) ([6]; 500 g ai/ha): 20; Ragweed plant response rating ([12]; 500 g ai/ha): 20; Ryegrass, Italian plant response rating ([13]; 125 g ai/ha): 20; Ryegrass, Italian plant response rating ([13]; 500 g ai/ha): 20; Wheat plant response rating ([14]; 125 g ai/ha): 0; Wheat plant response rating ([14]; 500 g ai/ha): 40; Ducksalad plant response rating (0 to 100 scale) [15]: 0; Barnyardgrass plant response rating (0 to 100 scale) [16]: 0; Rice plant response rating (0 to 100 scale) (rice (Oryza sativa)): 0 |
| CC1=[N+]([O-])C(C(=O)Nc2cccc(F)c2C#N)C(c2ccc(C(F)(F)F)cc2)C1 (racemic) [Compound 34] | 80 | 100 | 40 | 0 | 0 | 50 | 0 | 30 | 70 | 40 | 80 | 0 | 0 | 0 | 80 | 0 | 30 | 30 | 70 | 0 | Foxtail, Green plant response rating (0 to 100 scale) ([2]; 500 g ai/ha): 100; Kochia plant response rating (0 to 100 scale) (kochia (Kochia scoparia) [3]; 500 g ai/ha): 90; Pigweed plant response rating (0 to 100 scale) ([4]; 500 g ai/ha): 90; Ragweed plant response rating (0 to 100 scale) ([5]; 500 g ai/ha): 100; Ryegrass, Italian plant response rating (0 to 100 scale) ([6]; 500 g ai/ha): 0; Ragweed plant response rating ([12]; 500 g ai/ha): 50; Ryegrass, Italian plant response rating ([13]; 125 g ai/ha): 0; Ryegrass, Italian plant response rating ([13]; 500 g ai/ha): 30; Wheat plant response rating ([14]; 125 g ai/ha): 0; Wheat plant response rating ([14]; 500 g ai/ha): 50; Ducksalad plant response rating (0 to 100 scale) [15]: 50; Barnyardgrass plant response rating (0 to 100 scale) [16]: 35; Rice plant response rating (0 to 100 scale) (rice (Oryza sativa)): 0 |
| O=C(Nc1cccc(F)c1F)C1C(c2ccccc2)CC(C(F)(F)F)=[N+]1[O-] (racemic) [Compound 35] | 0 | 0 | 0 | 0 | 0 | 0 | 0 | 0 | 0 | 0 | 0 | 0 | 0 | 0 | 0 | 0 | 0 | 0 | 0 | 0 | Foxtail, Green plant response rating (0 to 100 scale) ([2]; 500 g ai/ha): 0; Kochia plant response rating (0 to 100 scale) (kochia (Kochia scoparia) [3]; 500 g ai/ha): 0; Pigweed plant response rating (0 to 100 scale) ([4]; 500 g ai/ha): 0; Ragweed plant response rating (0 to 100 scale) ([5]; 500 g ai/ha): 0; Ryegrass, Italian plant response rating (0 to 100 scale) ([6]; 500 g ai/ha): 0; Ragweed plant response rating ([12]; 500 g ai/ha): 0; Ryegrass, Italian plant response rating ([13]; 125 g ai/ha): 0; Ryegrass, Italian plant response rating ([13]; 500 g ai/ha): 0; Wheat plant response rating ([14]; 125 g ai/ha): 0; Wheat plant response rating ([14]; 500 g ai/ha): 0; Ducksalad plant response rating (0 to 100 scale) [15]: 0; Barnyardgrass plant response rating (0 to 100 scale) [16]: 0; Rice plant response rating (0 to 100 scale) (rice (Oryza sativa)): 0 |
